Measurements as given in PMC7038240 (Antimicrobial Agents and Chemotherapy, 2020).
Where two headings read alike, the source gives them in different places.

Assays:
Format in all cases: cell-based
K. aerogenes = test: microbe, parasite or virus in culture; conditions: Klebsiella aerogenes
K. oxytoca = test: microbe, parasite or virus in culture; conditions: Klebsiella oxytoca, read-out: MIC
P. aeruginosa = test: microbe, parasite or virus in culture; conditions: Pseudomonas aeruginosa, read-out: MIC
S. marcescens = test: microbe, parasite or virus in culture; conditions: Serratia marcescens
S. typhi = test: microbe, parasite or virus in culture; conditions: Salmonella enterica, strain 26A, AmpC/TEM-1
C. freundii = test: microbe, parasite or virus in culture; conditions: Citrobacter freundii
K. pneumoniae = test: microbe, parasite or virus in culture; conditions: Klebsiella pneumoniae, read-out: MIC
S. paratyphi = test: microbe, parasite or virus in culture; conditions: Salmonella enterica, strain 527, AmpC/TEM-1
E. coli = test: microbe, parasite or virus in culture; conditions: Escherichia coli, read-out: MIC
M. morgannii = test: organism not typed; conditions: strain 769909; OXA-48
From the text: The antibacterial activity of cefepime-taniborbactam was compared to that of ceftazidime-avibactam, ceftolozane-tazobactam, and cefepime-tazobactam against a diverse panel of Enterobacterales and P. aeruginosa clinical isolates with defined β-lactamase subtypes (see Table S1 in the supplemental material). IMP-producing strains were excluded, as none of the BLI-protected cephalosporins inhibited IMP sufficiently to provide a clinically relevant rescue of the partner β-lactam, a characteristic also shared by approved BLI-protected carbapenems (meropenem-vaborbactam and imipenem-relebactam). […] The antibacterial activity of the cephalosporins alone was included to ascertain the level of potentiation by the partnered BLI. BLIs were tested at a fixed concentration of 4 μg/ml in all combinations except cefepime-tazobactam, where tazobactam was fixed at a concentration of 8 μg/ml ([38]). The collection comprised 143 clinical isolates collected from 2005 and 2018.
The in vitro antibacterial activity of the β-lactams alone or in combination with the BLIs was determined in cation-adjusted Mueller-Hinton broth (CAMHB) microdilution assays according to CLSI recommendations ([51]). […]. The inocula for the broth microdilution assays were prepared by the broth culture method ([51]). […]

Cn1c(N)c(NC(=O)NCCN)c[n+]1CC1=C(C(=O)O)N2C(=O)[C@@H](NC(=O)/C(=N\OC(C)(C)C(=O)[O-])c3nsc(N)n3)[C@H]2SC1 [TOL]
MIC (K. aerogenes; strain 73546, AmpC): 4 µg/mL
MIC (K. aerogenes; strain 110099, AmpC/SHV-12): 64 µg/mL
MIC (K. aerogenes; strain 111707, AmpC/TEM-1): 4 µg/mL
MIC (K. oxytoca; strain 134943, CMY-2/TEM-1): 8 µg/mL
MIC (K. oxytoca; strain 847537, KPC): ≥ 256 µg/mL
MIC (P. aeruginosa; ATCC27853, strain ATCC 27853, W.T.): 1 µg/mL
MIC (P. aeruginosa; strain 10.257, PDC-50): 16 µg/mL
MIC (P. aeruginosa; strain 11.516, PDC-79): 64 µg/mL
MIC (P. aeruginosa; strain 11.698, PDC-87): 32 µg/mL
MIC (P. aeruginosa; strain 11.813, PDC-91): 8 µg/mL
MIC (P. aeruginosa; strain 13.1716, PDC-74): 128 µg/mL
MIC (P. aeruginosa; strain 13.1717, PDC-74): 64 µg/mL
MIC (P. aeruginosa; strain 13.1737, PDC-80): 128 µg/mL
MIC (P. aeruginosa; strain 13.1755, PDC-86): 128 µg/mL
MIC (P. aeruginosa; strain 13.1760, PDC-77): 32 µg/mL
MIC (P. aeruginosa; strain 13.1775, PDC-87): 16 µg/mL
MIC (P. aeruginosa; strain 247.3D, VIM-2): ≥ 256 µg/mL
MIC (P. aeruginosa; strain 1129, PDC): 1 µg/mL
MIC (P. aeruginosa; strain 3615, PDC/TEM-1): 4 µg/mL
MIC (P. aeruginosa; strain 5671, VIM-1): 64 µg/mL
MIC (P. aeruginosa; strain 8273, PDC/TEM-1): 1 µg/mL
MIC (P. aeruginosa; strain 164951, W.T.): 1 µg/mL
MIC (P. aeruginosa; strain 377860, W.T.): 1 µg/mL
MIC (P. aeruginosa; strain 384743, PDC/TEM-1): 16 µg/mL
MIC (P. aeruginosa; strain 1013996, KPC-2): 16 µg/mL
MIC (P. aeruginosa; strain 1071703, GES-6): 32 µg/mL
MIC (P. aeruginosa; strain 1113755, GES-5): ≥ 256 µg/mL
MIC (P. aeruginosa; strain 1138223, GES-19): ≥ 256 µg/mL
MIC (P. aeruginosa; strain 1138337, GES-19): ≥ 256 µg/mL
MIC (P. aeruginosa; strain 1258509, GES-6): 64 µg/mL
MIC (P. aeruginosa; strain 1275655, GES-20): ≥ 256 µg/mL
MIC (P. aeruginosa; strain 1300089, GES-19): ≥ 256 µg/mL
MIC (P. aeruginosa; strain 1313666, KPC-2): 32 µg/mL
MIC (P. aeruginosa; strain CDC-0090, KPC): 32 µg/mL
MIC (P. aeruginosa; strain PA2, W.T.): 2 µg/mL
MIC (P. aeruginosa; strain PAA1-9G1, GES-5): ≥ 256 µg/mL
MIC (P. aeruginosa; strain PAA1-9G2, GES-5): ≥ 256 µg/mL
MIC (P. aeruginosa; strain PS-12, VIM-2): ≥ 256 µg/mL
MIC (P. aeruginosa; strain PS-32, VIM-2): 128 µg/mL
MIC (P. aeruginosa; strain Paeβ-04, 100-fold ↑ PDC-2/30% OprD/5.6x ↑ABM): 2 µg/mL
MIC (P. aeruginosa; strain Paeβ-10, 67-fold ↑ PDC-2/0.1% OprD/5.7x↑ABM): 2 µg/mL
MIC (P. aeruginosa; strain Paeβ-15, 310-fold ↑ PDC-2/10% OprD/4.4x↑XYM): 4 µg/mL
MIC (P. aeruginosa; strain Paeβ-17, 62-fold ↑PDC-3/30% OprD/10.2x and 9.9x ↑XYM and CDJ): 2 µg/mL
MIC (P. aeruginosa; strain Paeβ-18, 600-fold ↑ PDC-3/<0.01% OprD/3.9x and 5.6x ↑ABM and XYM): 16 µg/mL
MIC (P. aeruginosa; strain Paeβ-21, 200-fold ↑ PDC-4/10% OprD/13.5x ↑XYM): 2 µg/mL
MIC (P. aeruginosa; strain Ps296, VIM-2): ≥ 256 µg/mL
MIC (S. marcescens; strain 134434, AmpC/SHV-12/TEM-1): 64 µg/mL
MIC (S. marcescens; strain 192476, AmpC/TEM-1/SHV-5): 64 µg/mL
MIC (S. marcescens; strain 192478, AmpC/SHV-12/TEM-1): 64 µg/mL
MIC (S. marcescens; strain 218073, AmpC/SHV-7/TEM-1): 64 µg/mL
MIC (S. typhi): 16 µg/mL
MIC (C. freundii; strain 134390, AmpC/TEM-1): 8 µg/mL
MIC (C. freundii; strain 241181, AmpC/TEM-163): 16 µg/mL
MIC (K. pneumoniae; strain 6299, OXA-163): ≥ 256 µg/mL
MIC (K. pneumoniae; strain 137052, SHV-11/KPC-3/TEM-1): 64 µg/mL
MIC (K. pneumoniae; strain 178279, SHV-12/TEM-1/AmpC): 64 µg/mL
MIC (K. pneumoniae; strain 196477, AmpC): ≥ 256 µg/mL
MIC (K. pneumoniae; strain 212027, AmpC/FOX-5/TEM-1): 8 µg/mL
MIC (K. pneumoniae; strain 515746, OXA-48): 128 µg/mL
MIC (K. pneumoniae; strain 664438, OXA-48): 128 µg/mL
MIC (K. pneumoniae; strain 664439, OXA-48): 128 µg/mL
MIC (K. pneumoniae; strain 722870, OXA-48): 64 µg/mL
MIC (K. pneumoniae; strain 752334, OXA-48): ≥ 256 µg/mL
MIC (K. pneumoniae; strain 769972, OXA-48): 128 µg/mL
MIC (K. pneumoniae; strain 787422, OXA-48): 64 µg/mL
MIC (K. pneumoniae; strain 845661, KPC): ≥ 256 µg/mL
MIC (K. pneumoniae; strain 847204, KPC): 64 µg/mL
MIC (K. pneumoniae; strain 848562, KPC): ≥ 256 µg/mL
MIC (K. pneumoniae; strain 848600, KPC): ≥ 256 µg/mL
MIC (K. pneumoniae; strain 848828, KPC): 128 µg/mL
MIC (K. pneumoniae; strain 849170, KPC): 128 µg/mL
MIC (K. pneumoniae; strain 856819, SHV-11/VIM-1): ≥ 256 µg/mL
MIC (K. pneumoniae; strain 864085, KPC): ≥ 256 µg/mL
MIC (K. pneumoniae; strain 871489, KPC): ≥ 256 µg/mL
MIC (K. pneumoniae; strain 873460, SHV-30/CTX-M-15): 128 µg/mL
MIC (K. pneumoniae; strain 874328, SHV-11/CTX-M-15/NDM-1): ≥ 256 µg/mL
MIC (K. pneumoniae; strain 882752, SHV-11/TEM-1/KPC-3): 128 µg/mL
MIC (K. pneumoniae; strain 882956, SHV-31/DHA-1/VIM-1): ≥ 256 µg/mL
MIC (K. pneumoniae; strain 884679, KPC): 64 µg/mL
MIC (K. pneumoniae; strain 890066, SHV-33/TEM-33/CTX-M-15/IMP-1): ≥ 256 µg/mL
MIC (K. pneumoniae; strain 892694, SHV-12/TEM-1/CTX-M-15/OXA-48/ACT): ≥ 256 µg/mL
MIC (K. pneumoniae; strain 919877, SHV-OSBL/VIM-1): ≥ 256 µg/mL
MIC (K. pneumoniae; strain 1104864, SHV-OSBL(b)/VIM-1): ≥ 256 µg/mL
MIC (K. pneumoniae; strain 1104866, SHV-OSBL(b)/VIM-1): ≥ 256 µg/mL
MIC (K. pneumoniae; strain 1280442, SHV-OSBL(b)/VIM-1): ≥ 256 µg/mL
MIC (K. pneumoniae; strain CDC-0003, KPC): 128 µg/mL
MIC (K. pneumoniae; strain CDC-0049, NDM): ≥ 256 µg/mL
MIC (K. pneumoniae; strain CDC-0117, KPC-3): 128 µg/mL
MIC (K. pneumoniae; strain CDC-0125, KPC-3): 128 µg/mL
MIC (K. pneumoniae; strain CDC-0139, NDM-1): ≥ 256 µg/mL
MIC (K. pneumoniae; strain CDC-0145, NDM): ≥ 256 µg/mL
MIC (K. pneumoniae; strain CDC-0148, NDM): ≥ 256 µg/mL
MIC (K. pneumoniae; strain CDC-0152, NDM): ≥ 256 µg/mL
MIC (K. pneumoniae; strain DOV, OXA-48): 128 µg/mL
MIC (K. pneumoniae; strain ESBL8 #1, TEM-1/SHV-12): 32 µg/mL
MIC (K. pneumoniae; strain ESBL 10, SHV-12/TEM-1): 32 µg/mL
MIC (K. pneumoniae; strain KIRK, OXA-162): 128 µg/mL
MIC (K. pneumoniae; strain KP 3, SHV-1/TEM-1): ≥ 256 µg/mL
MIC (K. pneumoniae; strain KPN 508, SHV-7/TEM-1): 32 µg/mL
MIC (K. pneumoniae; strain SI-C05, OXA-48): ≥ 256 µg/mL
MIC (K. pneumoniae; strain SI-F100, SHV-5/TEM-1/CMY-2): 16 µg/mL
MIC (K. pneumoniae; strain SI-KP NO30, TEM-26b/SHV-60/SHV-26): 64 µg/mL
MIC (S. paratyphi): 32 µg/mL
MIC (E. coli; strain 469, AmpC/SHV-12/TEM-1): 8 µg/mL
MIC (E. coli; strain 1924, TEM-12): 16 µg/mL
MIC (E. coli; strain 664507, OXA-48): 64 µg/mL
MIC (E. coli; strain 664516, OXA-48): 64 µg/mL
MIC (E. coli; strain 664520, OXA-48): 64 µg/mL
MIC (E. coli; strain 664522, OXA-48): 128 µg/mL
MIC (E. coli; strain 664523, OXA-48): 64 µg/mL
MIC (E. coli; strain 849121, KPC): 32 µg/mL
MIC (E. coli; strain 873435, CTX-M-15): 128 µg/mL
MIC (E. coli; strain 875627, CTX-M-27): 16 µg/mL
MIC (E. coli; strain 878358, TEM-1/CTX-M): 64 µg/mL
MIC (E. coli; strain 890500, TEM-1/CTX-M-14): 8 µg/mL
MIC (E. coli; strain 1275635, VIM-23): ≥ 256 µg/mL
MIC (E. coli; strain 1459453, NDM-7): ≥ 256 µg/mL
MIC (E. coli; strain CDC-0001, KPC): 64 µg/mL
MIC (E. coli; strain CDC-0069, NDM): ≥ 256 µg/mL
MIC (E. coli; strain CDC-0149, NDM): ≥ 256 µg/mL
MIC (E. coli; strain EC1552 2A, AmpC/CMY-2/TEM-1, CTX-M-15): 16 µg/mL
MIC (E. coli; strain ESBL 5, CTX-M-15/TEM-1): 128 µg/mL
MIC (E. coli; strain SI-LP377, CTX-M-2): 32 µg/mL
MIC (E. coli; strain SI-M004, SHV-2/GES-12): 64 µg/mL
MIC (E. coli; strain SI-PO26, AmpC/CMY-2/TEM-1): 8 µg/mL
MIC (E. coli; strain SI-V502, TEM-29/CTX-M-15): 8 µg/mL
MIC (E. coli; strain VER, OXA-48): 2 µg/mL
MIC (M. morgannii): 8 µg/mL
